PMC2857344 (2010)

Experiments:
[1] = test system: P27 (3MX-binding aptamer) (RNA, aptamer, 2-aminopurine at 27) GGCGAUACCAGCCGAAAGGCCAUUGGAAGCGUC; assay: steady-state 2-aminopurine fluorescence titration; conditions: 100 mM NaCl, 10 mM MgCl2; 100 mM HEPES, 0.1 mM EDTA, pH 7.5, 25 °C; 100 nM RNA
[2] = test system: P10 (3MX-binding aptamer) (RNA, aptamer, 2-aminopurine at 10 (replaces A10)) GGCGAUACCAGCCGAAAGGCCAUUGGAAGCGUC; assay: ITC; conditions: 100 mM NaCl, 10 mM MgCl2; 100 mM HEPES, 0.1 mM EDTA, pH 7.5, 25 °C
[3] = test system: WT theophylline-binding aptamer (RNA, aptamer) GGCGAUACCAGCCGAAAGGCCCUUGGCAGCGUC; assay: ITC; conditions: 100 mM NaCl, 10 mM MgCl2; 100 mM HEPES, 0.1 mM EDTA, pH 7.5, 25 °C
[4] = test system: WT 3MX-binding aptamer (RNA, aptamer) GGCGAUACCAGCCGAAAGGCCAUUGGAAGCGUC; assay: ITC; conditions: 100 mM NaCl, 10 mM MgCl2; 100 mM HEPES, 0.1 mM EDTA, pH 7.5, 25 °C
[5] = test system: P10Z11 (theophylline-binding aptamer) (RNA, aptamer, 2-aminopurine at 10 (replaces A10); 7-deazaguanine at 11) GGCGAUACCAGCCGAAAGGCCCUUGGCAGCGUC; assay: ITC; conditions: 100 mM NaCl, 10 mM MgCl2; 100 mM HEPES, 0.1 mM EDTA, pH 7.5, 25 °C
[6] = test system: P10 (theophylline-binding aptamer) (RNA, aptamer, 2-aminopurine at 10 (replaces A10)) GGCGAUACCAGCCGAAAGGCCCUUGGCAGCGUC; assay: ITC; conditions: 100 mM NaCl, 10 mM MgCl2; 100 mM HEPES, 0.1 mM EDTA, pH 7.5, 25 °C

| Kd [1] [µM] | Kd [2] [µM] | Kd [3] [µM] | Kd [4] [µM] | Kd [5] [µM] | Kd [6] [µM] | SMILES |
| --- | --- | --- | --- | --- | --- | --- |
| 3.6 ± 0.3 | 24 ± 5 | 1.6 ± 0.5 | 2.7 ± 2.0 |  |  | Cn1c(=O)[nH]c(=O)c2[nH]cnc21 |
|  |  | 0.86 ± 0.12 |  | 9.4 ± 0.7 | 9.4 ± 0.8 | Cn1c(=O)c2[nH]cnc2n(C)c1=O |
